Assay results reported in ChEMBL document CHEMBL5634100, “Novel spiro[pyrrolidine-2,3'-quinoline]-2'-one derivatives containing piperazine fragment as potential chitin synthase inhibitors and antifungal agents: Design, synthesis and biological evaluation” (Eur J Med Chem, 2023).
In brackets after ≈: the same amount, converted by molar mass.

Key:
Candida albicans [1] = assay: Additive antimicrobial activity against Candida albicans ATCC 76615 assessed as fractional inhibitory concentration index incubated for 24 hrs in presence of polyoxin B by checkerboard method; format: functional
Aspergillus fumigatus [2] = assay: Synergistic antimicrobial activity against Aspergillus fumigatus GIMCC 3.19 assessed as fractional inhibitory concentration index incubated for 24 hrs in presence of polyoxin B by checkerboard method; format: functional
Cryptococcus neoformans [3] = assay: Antimicrobial activity against Cryptococcus neoformans ATCC 32719 incubated for 24 hrs in presence of fluconazole by checkerboard method; format: functional
Cryptococcus neoformans [4] = assay: Antimicrobial activity against Cryptococcus neoformans ATCC 32719 assessed as inhibition of cell wall synthesis in presence of sorbitol; format: functional
Aspergillus flavus [5] = assay: Additive antimicrobial activity against Aspergillus flavus ATCC 16870 assessed as fractional inhibitory concentration index incubated for 24 hrs in presence of polyoxin B by checkerboard method; format: functional
Cryptococcus neoformans [6] = assay: Additive antimicrobial activity against Cryptococcus neoformans ATCC 32719 assessed as fractional inhibitory concentration index incubated for 24 hrs in presence of polyoxin B by checkerboard method; format: functional
Candida albicans [7] = assay: Antimicrobial activity against micafungin-resistant Candida albicans ATCC 76615R incubated for 24 hrs by two fold serial dilution method; format: functional
Candida albicans [8] = assay: Antimicrobial activity against Candida albicans ATCC 76615 incubated for 24 hrs by two fold serial dilution method; format: functional
Candida albicans [9] = assay: Antimicrobial activity against Candida albicans ATCC 76615 assessed as inhibition of cell wall synthesis in presence of sorbitol; format: functional
[10] = Inhibition of Candida tropicalis ATCC 750 chitin synthase using UDP-GlcNAc as substrate by TMB based microplate analyzer
Cryptococcus neoformans [11] = assay: Antimicrobial activity against Cryptococcus neoformans ATCC 32719 incubated for 24 hrs by two fold serial dilution method; format: functional
Cryptococcus neoformans [12] = assay: Additive antimicrobial activity against Cryptococcus neoformans ATCC 32719 assessed as fractional inhibitory concentration index incubated for 24 hrs in presence of fluconazole by checkerboard method; format: functional
Candida albicans [13] = assay: Antimicrobial activity against fluconazole-resistant Candida albicans ATCC 76615R incubated for 24 hrs by two fold serial dilution method; format: functional
Candida albicans [14] = assay: Antimicrobial activity against Candida albicans ATCC 76615 incubated for 24 hrs in presence of polyoxin B by checkerboard method; format: functional
Aspergillus fumigatus [15] = assay: Antimicrobial activity against Aspergillus fumigatus GIMCC 3.19 incubated for 24 hrs by two fold serial dilution method; format: functional
Aspergillus fumigatus [16] = assay: Antimicrobial activity against Fluconazole-resistant Aspergillus fumigatus GIMCC 3.19R incubated for 24 hrs by two fold serial dilution method; format: functional
Candida albicans [17] = assay: Antimicrobial activity against Candida albicans ATCC 76615 incubated for 24 hrs in presence of fluconazole by checkerboard method; format: functional
Cryptococcus neoformans [18] = assay: Antimicrobial activity against Cryptococcus neoformans ATCC 32719 incubated for 24 hrs in presence of polyoxin B by checkerboard method; format: functional
Aspergillus flavus [19] = assay: Antimicrobial activity against Aspergillus flavus ATCC 16870 incubated for 24 hrs in presence of polyoxin B by checkerboard method; format: functional
Aspergillus flavus [20] = assay: Antimicrobial activity against Aspergillus flavus ATCC 16870 incubated for 24 hrs in presence of fluconazole by checkerboard method; format: functional
Cryptococcus neoformans [21] = assay: Antimicrobial activity against Fluconazole-resistant Cryptococcus neoformans ATCC 32719R incubated for 24 hrs by two fold serial dilution method; format: functional
Aspergillus flavus [22] = assay: Antimicrobial activity against Aspergillus flavus ATCC 16870 incubated for 24 hrs by two fold serial dilution method; format: functional
Aspergillus fumigatus [23] = assay: Antimicrobial activity against Aspergillus fumigatus GIMCC 3.19 incubated for 24 hrs in presence of polyoxin B by checkerboard method; format: functional
Aspergillus flavus [24] = assay: Antimicrobial activity against Fluconazole-resistant Aspergillus flavus ATCC 16870R incubated for 24 hrs by two fold serial dilution method; format: functional
Aspergillus fumigatus [25] = assay: Antimicrobial activity against Aspergillus fumigatus GIMCC 3.19 incubated for 24 hrs in presence of fluconazole by checkerboard method; format: functional
Candida tropicalis = assay: Inhibition of Candida tropicalis ATCC 750 chitin synthase using UDP-GlcNAc as substrate at 300 ug/ml by TMB based microplate analyzer relative to control; details: dose 300.0 µg/ml
Candida albicans [26] = assay: Synergistic antimicrobial activity against Candida albicans ATCC 76615 assessed as fractional inhibitory concentration index incubated for 24 hrs in presence of fluconazole by checkerboard method; format: functional
Aspergillus fumigatus [27] = assay: Synergistic antimicrobial activity against Aspergillus fumigatus GIMCC 3.19 assessed as fractional inhibitory concentration index incubated for 24 hrs in presence of fluconazole by checkerboard method; format: functional
Aspergillus flavus [28] = assay: Additive antimicrobial activity against Aspergillus flavus ATCC 16870 assessed as fractional inhibitory concentration index incubated for 24 hrs in presence of fluconazole by checkerboard method; format: functional
Aspergillus fumigatus [29] = assay: Antimicrobial activity against Aspergillus fumigatus GIMCC 3.19 assessed as inhibition of cell wall synthesis in presence of sorbitol; format: functional
Aspergillus flavus [30] = assay: Antimicrobial activity against Aspergillus flavus ATCC 16870 assessed as inhibition of cell wall synthesis in presence of sorbitol; format: functional
Cryptococcus neoformans [31] = assay: Synergistic antimicrobial activity against Cryptococcus neoformans ATCC 32719 assessed as fractional inhibitory concentration index incubated for 24 hrs in presence of polyoxin B by checkerboard method; format: functional
Aspergillus flavus [32] = assay: Synergistic antimicrobial activity against Aspergillus flavus ATCC 16870 assessed as fractional inhibitory concentration index incubated for 24 hrs in presence of fluconazole by checkerboard method; format: functional
Aspergillus flavus [33] = assay: Synergistic antimicrobial activity against Aspergillus flavus ATCC 16870 assessed as fractional inhibitory concentration index incubated for 24 hrs in presence of polyoxin B by checkerboard method; format: functional
Cryptococcus neoformans [34] = assay: Synergistic antimicrobial activity against Cryptococcus neoformans ATCC 32719 assessed as fractional inhibitory concentration index incubated for 24 hrs in presence of fluconazole by checkerboard method; format: functional
Candida albicans [35] = assay: Additive antimicrobial activity against Candida albicans ATCC 76615 assessed as fractional inhibitory concentration index incubated for 24 hrs in presence of fluconazole by checkerboard method; format: functional
Aspergillus fumigatus [36] = assay: Additive antimicrobial activity against Aspergillus fumigatus GIMCC 3.19 assessed as fractional inhibitory concentration index incubated for 24 hrs in presence of polyoxin B by checkerboard method; format: functional
Candida albicans [37] = assay: Synergistic antimicrobial activity against Candida albicans ATCC 76615 assessed as fractional inhibitory concentration index incubated for 24 hrs in presence of polyoxin B by checkerboard method; format: functional
Aspergillus fumigatus [38] = assay: Additive antimicrobial activity against Aspergillus fumigatus GIMCC 3.19 assessed as fractional inhibitory concentration index incubated for 24 hrs in presence of fluconazole by checkerboard method; format: functional

Row | Compound | MIC (Cryptococcus neoformans [3]) | MIC (Cryptococcus neoformans [4]) | MIC (Candida albicans [7]) | MIC (Candida albicans [8]) | MIC (Candida albicans [9]) | IC50 [10] | MIC (Cryptococcus neoformans [11]) | MIC (Candida albicans [13]) | MIC (Candida albicans [14]) | MIC (Aspergillus fumigatus [15]) | MIC (Aspergillus fumigatus [16]) | MIC (Candida albicans [17]) | MIC (Cryptococcus neoformans [18]) | MIC (Aspergillus flavus [19]) | MIC (Aspergillus flavus [20]) | MIC (Cryptococcus neoformans [21]) | MIC (Aspergillus flavus [22]) | MIC (Aspergillus fumigatus [23]) | MIC (Aspergillus flavus [24]) | MIC (Aspergillus fumigatus [25]) | other results
1 | O=C(c1cccc(F)c1)N1CCN(CC(=O)N2CCCC23Cc2ccccc2NC3=O)CC1 (stereo not drawn) | 2 µg/mL | 64 µg/mL | 128 µg/mL (≈ 284 µM) | 1 µg/mL (≈ 2.22 µM) | 64 µg/mL | 140 µM | 8 µg/mL (≈ 17.8 µM) | 32 µg/mL (≈ 71 µM) | 0.5 µg/mL | 1 µg/mL (≈ 2.22 µM) | 32 µg/mL (≈ 71 µM) | 1 µg/mL | 2 µg/mL | 2 µg/mL | 2 µg/mL | 32 µg/mL (≈ 71 µM) | 4 µg/mL (≈ 8.88 µM) | 4 µg/mL | 32 µg/mL (≈ 71 µM) | 1 µg/mL | fractional inhibitory concentration index (FICI) (Candida albicans [1]): 1.063; fractional inhibitory concentration index (FICI) (Aspergillus fumigatus [2]): 0.625; fractional inhibitory concentration index (FICI) (Aspergillus flavus [5]): 1.25; fractional inhibitory concentration index (FICI) (Cryptococcus neoformans [6]): 1.125; fractional inhibitory concentration index (FICI) (Cryptococcus neoformans [12]): 1.25; inhibition (Candida tropicalis): 76.8%; fractional inhibitory concentration index (FICI) (Candida albicans [26]): 0.75; fractional inhibitory concentration index (FICI) (Aspergillus fumigatus [27]): 0.5; fractional inhibitory concentration index (FICI) (Aspergillus flavus [28]): 1.25; MIC (Aspergillus fumigatus [29]): 128 µg/mL; MIC (Aspergillus flavus [30]): 64 µg/mL
2 | O=C(c1ccc([N+](=O)[O-])cc1)N1CCN(CC(=O)N2CCCC23Cc2ccccc2NC3=O)CC1 (stereo not drawn) | 2 µg/mL | 64 µg/mL | 128 µg/mL (≈ 268 µM) | 2 µg/mL (≈ 4.19 µM) | 64 µg/mL | 110 µM | 2 µg/mL (≈ 4.19 µM) | 32 µg/mL (≈ 67 µM) | 1 µg/mL | 1 µg/mL (≈ 2.09 µM) | 64 µg/mL (≈ 134 µM) | 0.5 µg/mL | 4 µg/mL | 1 µg/mL | 2 µg/mL | 64 µg/mL (≈ 134 µM) | 2 µg/mL (≈ 4.19 µM) | 4 µg/mL | 128 µg/mL (≈ 268 µM) | 2 µg/mL | fractional inhibitory concentration index (FICI) (Candida albicans [1]): 1.125; fractional inhibitory concentration index (FICI) (Aspergillus fumigatus [2]): 0.75; fractional inhibitory concentration index (FICI) (Cryptococcus neoformans [31]): 0.5; fractional inhibitory concentration index (FICI) (Aspergillus flavus [32]): 0.75; fractional inhibitory concentration index (FICI) (Aspergillus flavus [33]): 0.375; inhibition (Candida tropicalis): 80.2%; fractional inhibitory concentration index (FICI) (Cryptococcus neoformans [34]): 0.75; fractional inhibitory concentration index (FICI) (Aspergillus fumigatus [27]): 1; fractional inhibitory concentration index (FICI) (Candida albicans [35]): 1.125; MIC (Aspergillus fumigatus [29]): 64 µg/mL; MIC (Aspergillus flavus [30]): 32 µg/mL
3 | O=C(c1cc([N+](=O)[O-])ccc1Cl)N1CCN(CC(=O)N2CCCC23Cc2ccccc2NC3=O)CC1 (stereo not drawn) | 4 µg/mL | 256 µg/mL | 32 µg/mL (≈ 62.5 µM) | 1 µg/mL (≈ 1.95 µM) | 32 µg/mL | 100 µM | 4 µg/mL (≈ 7.81 µM) | 32 µg/mL (≈ 62.5 µM) | 2 µg/mL | 4 µg/mL (≈ 7.81 µM) | 32 µg/mL (≈ 62.5 µM) | 2 µg/mL | 4 µg/mL | 1 µg/mL | 4 µg/mL | 128 µg/mL (≈ 250 µM) | 1 µg/mL (≈ 1.95 µM) | 2 µg/mL | 32 µg/mL (≈ 62.5 µM) | 1 µg/mL | fractional inhibitory concentration index (FICI) (Cryptococcus neoformans [31]): 0.5; fractional inhibitory concentration index (FICI) (Aspergillus flavus [5]): 1.125; fractional inhibitory concentration index (FICI) (Aspergillus fumigatus [36]): 1.25; fractional inhibitory concentration index (FICI) (Candida albicans [37]): 0.75; fractional inhibitory concentration index (FICI) (Aspergillus flavus [32]): 0.75; inhibition (Candida tropicalis): 82.9%; fractional inhibitory concentration index (FICI) (Cryptococcus neoformans [34]): 0.625; fractional inhibitory concentration index (FICI) (Candida albicans [26]): 1; fractional inhibitory concentration index (FICI) (Aspergillus fumigatus [38]): 1.25; MIC (Aspergillus fumigatus [29]): 128 µg/mL; MIC (Aspergillus flavus [30]): 64 µg/mL
